A word on the solubility: it is the dissolved amount per volume that the medium holds. The term half-life denotes the time in which the quantity being followed falls by half. Higher therefore signals slow loss.

Here are results for 14 compounds from US12472230B2, “Peptides and methods of use thereof in treating uveitis” (Park Strategic Ventures LLC, priority 2019, dated 2025).

≈ marks a conversion by molar mass, not a printed value. Residues, ends and D or L forms follow the SMILES beside them. No end group written: not given here. *: point of attachment. Myristoyl = CCCCCCCCCCCCCC(=O)* A value given as a limit tells only on which side of the number the result lay.

A short description of one data set: Solubility in HNS. The data set is classed as physicochemical.
A further data set can be described thus: T/2 in human plasma. In kind it is in vitro ADME.
Data set [1] concerns release of inflammatory mediators from leukocyte cell types. Briefly: Release of inflammatory mediators from leukocyte cell types, MANS versus RNS. The data set is classed as cell-based, human. As to conditions: each of the cell types examined; time course of 0.5-3.0 hrs. As to the method:
In an in vitro method to inhibit or attenuate the release of a mediator of inflammation such as those described herein, each of the cell types is preincubated with a peptide compound or peptide composition of this disclosure over a range of concentrations followed by incubation of these cells by a stimulator of release of inflammatory mediators, such as phorbol ester. The percent of inhibition of release of a mediator of inflammation is determined as compared to the release of the mediator in the absence of the peptide compound or peptide composition, such as in a specrophotometric readout of a concentration of the mediator released.

On to `CCCCCCCCCCCCCC(=O)NCC(=O)N[C@@H](C)C(=O)N[C@@H](CCC(N)=O)C(=O)N[C@@H](Cc1ccccc1)C(=O)N[C@@H](CO)C(=O)N[C@@H](CCCCN)C(=O)N[C@H](C(=O)N[C@@H](C)C(=O)N[C@@H](C)C(=O)N[C@@H](CCCCN)C(=O)O)[C@@H](C)O` [BIO-11000] (Myristoyl-GAQFSKTAAK-OH), for which, in the data set “Solubility in HNS”, the concentration in solution (solubility) was 15 mg/mL (≈ 12.3 mM). Also, the half-life in “T/2 in human plasma” was 72 min.

Take `CCCCCCCCCCCCCC(=O)NCC(=O)N[C@@H](C)C(=O)N[C@@H](CCC(N)=O)C(=O)N[C@@H](Cc1ccccc1)C(=O)N[C@@H](CO)C(=O)N[C@@H](CCCCN)C(=O)N[C@H](C(=O)N[C@@H](C)C(=O)N[C@@H](C)C(=O)N[C@@H](CCCCN)C(N)=O)[C@@H](C)O` [BIO-11002] (Myristoyl-GAQFSKTAAK-NH2): the solubility in the data set “Solubility in HNS” was less than 10 mg/mL. For the same compound, the “T/2 (human plasma), in words” value in “T/2 in human plasma” is “stable”.

The compound `C[C@@H]1NC(=O)CNC(=O)[C@H](CCCCN)NC(=O)[C@H](C)NC(=O)[C@H](C)NC(=O)[C@H]([C@@H](C)O)NC(=O)[C@H](CCCCN)NC(=O)[C@H](CO)NC(=O)[C@H](Cc2ccccc2)NC(=O)[C@H](CCC(N)=O)NC1=O` [BIO-11007] (cyclo(GAQFSKTAAK); ring closure inferred) displayed a solubility in “Solubility in HNS” of 150 mg/mL (≈ 151 mM).

As to `CCCCCCCCCCCCCC(=O)N[C@@H](C)C(=O)N[C@@H](CCCCN)C(=O)NCC(=O)N[C@@H](CCC(=O)O)C(=O)O` [BIO-91200, Ma-AKGE-OH] (Myristoyl-AKGE-OH), the solubility in the data set “Solubility in HNS” was approximately 1 mg/mL (≈ 1.63 mM).

`CC(=O)N[C@@H](C)C(=O)N[C@@H](CCCCN)C(=O)NCC(=O)N[C@@H](CCC(=O)O)C(=O)O` [BIO-91201, Ac-AKGE-OH] (Ac-AKGE-OH): the concentration in solution in the data set “Solubility in HNS” (solubility) was 200 mg/mL (≈ 449 mM).

Consider `CC(=O)N[C@@H](C)C(=O)N[C@@H](CCCCN)C(=O)NCC(=O)N[C@@H](CCC(=O)O)C(N)=O` [BIO-91202, Ac-AKGE-NH2] (Ac-AKGE-NH2), for which the concentration in solution in “Solubility in HNS” (solubility) was 200 mg/mL (≈ 450 mM).

For `CCCCCCCCCCCCCC(=O)NCC(=O)N[C@@H](C)C(=O)N[C@@H](CCC(N)=O)C(=O)N[C@@H](Cc1ccccc1)C(=O)N[C@@H](CO)C(=O)N[C@@H](CCCCN)C(=O)N[C@H](C(=O)N[C@@H](C)C(=O)N[C@@H](C)C(=O)N[C@@H](CCCCN)C(=O)NCC(=O)N[C@@H](CCC(=O)O)C(=O)N[C@@H](C)C(=O)N[C@@H](C)C(=O)N[C@@H](C)C(=O)N[C@@H](CCC(=O)O)C(=O)N[C@@H](CCCNC(=N)N)C(=O)N1CCC[C@H]1C(=O)NCC(=O)N[C@@H](CCC(=O)O)C(=O)N[C@@H](C)C(=O)N[C@@H](C)C(=O)N[C@H](C(=O)N[C@@H](C)C(=O)O)C(C)C)[C@@H](C)O` [MANS] (Myristoyl-GAQFSKTAAKGEAAAERPGEAAVA-OH; C-terminus assumed), the solubility in the data set “Solubility in HNS” was less than 5 mg/mL. In “T/2 in human plasma”, this compound gave a half-life of 12 min.

In “Solubility in HNS”, Ac-GAQFSKTA-OH [BIO-10803] registered a solubility of 200 mg/mL.

In turn, Ac-GAQFSKTAA-OH [BIO-10901] gave a solubility in the data set “Solubility in HNS” of more than 60 mg/mL. This compound displayed a half-life in “T/2 in human plasma” of 5 min.

Ac-GAQFSKTAAKGE-NH2 [BIO-11211] gave a solubility in the data set “Solubility in HNS” of 60 mg/mL. The compound further came in with a half-life in the data set “T/2 in human plasma” of more than 156 min.

Consider “Ac-GAQFSKTAAKGEAAAERPGEAAVA-OH [Ac-MANS]”, for which the solubility in “Solubility in HNS” was 125 mg/mL.

As for “BIO-11018: SEQ ID NO 106 pegylated (GAQFSKTAAK; also: PEGylated, site not given here)”, in “Solubility in HNS”, the “Solubility in HNS” value is more than 100 mg/mL.

With GTAPAAEGAGAEVKRASAEAKQAF [RNS], in data set [1], the “release of inflammatory mediators” value is reported as “not”.

The compound H-GAQFSKTAAK-NH2 [BIO-11005] returned a solubility in the data set “Solubility in HNS” of 100 mg/mL. Besides, the half-life in “T/2 in human plasma” came to 20 min.
